Each structure is given as a SMILES string.

Consider 33 molecules from patent publication US8026252B2 (priority 2005, dated 2011).

In the first assay the target is T1, human μ opioid receptor (Homo sapiens, UniProt P35372).
T1 construct: expressed in transfected cells
T1 sequence (P35372 whole entry): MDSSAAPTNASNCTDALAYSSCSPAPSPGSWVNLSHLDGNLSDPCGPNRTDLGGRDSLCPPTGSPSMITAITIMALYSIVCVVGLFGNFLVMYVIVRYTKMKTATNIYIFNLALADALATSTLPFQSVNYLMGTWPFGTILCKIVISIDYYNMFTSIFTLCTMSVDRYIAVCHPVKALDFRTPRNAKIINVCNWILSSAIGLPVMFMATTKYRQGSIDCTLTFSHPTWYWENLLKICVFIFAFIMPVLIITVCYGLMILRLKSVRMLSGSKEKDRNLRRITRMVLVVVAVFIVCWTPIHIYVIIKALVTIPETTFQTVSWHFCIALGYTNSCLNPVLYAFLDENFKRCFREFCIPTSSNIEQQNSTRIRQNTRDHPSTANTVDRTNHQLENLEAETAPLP
The experiment in a line: biochemical. The settings on record: [3H]DAMGO (μ). The class given is binding.
As to `CC[C@@]12CCN(CC3CC3)C(C(=O)c3ccc(C(=O)NCCc4ccc(-c5ccccc5)cc4)cc31)[C@@H]2C` (mixture of isomers) [Example 21, (±)-3-(Cyclopropylmethyl)-6-ethyl-1,2,3,4,5,6-hexaahydro-cis-11-methyl-N-(2-[1,1′-biphenyl]-4-ylethyl)-1-oxo-2,6-methano-3-benzazocine-8-carboxamide], the Ki stood at 4.9 ± 0.2 nM.

`CC1C2Cc3ccc(C(=O)NCCCCCc4ccccc4)cc3C1(C)CCN2CC1CC1` (racemic) [Example 61]: the Ki came to 1.7 ± 0.15 nM.

In turn, `CC1C2Cc3ccc(C(=O)NCCc4cccnc4)cc3C1(C)CCN2CC1CC1` (racemic) [Example 69] came in with a Ki of 120 ± 3.6 nM.

Molecule `CC(NC(=O)c1ccc2c(c1)C1(C)CCN(CC3CC3)C(C2)C1C)c1ccccc1` (single isomer, unassigned) [Example 67] registered a Ki of 28 ± 1.4 nM.

Consider `CC(NC(=O)c1ccc2c(c1)C1(C)CCN(CC3CC3)C(C2)C1C)c1ccccc1` (single isomer, unassigned) [Example 68], for which the Ki is 62 ± 3.3 nM.

The molecule `O=C(NCCc1ccc(-c2ccccc2)cc1)c1ccc2c3c1OC1C(=O)CCC4(O)C(C2)N(CC2CC2)CCC314` (single isomer, unassigned; (-)) [Example 71, (−)-Q-naltrexone] displayed a Ki of 1.4 ± 0.12 nM.

Take `CC1C2C(=O)c3ccc(C(=O)NCCc4ccc(-c5ccccc5)cc4)cc3C1(C)CCN2CC1CC1` (stereo not drawn) [Example 20]: the Ki was 3.1 ± 1.3 nM.

`CC(CNC(=O)c1ccc2c(c1)[C@@]1(C)CCN(CC3CC3)C(C2)[C@@H]1C)c1ccc(-c2ccccc2)cc1` (stereo partly drawn) [Example 46]: the Ki was determined as 18 ± 1.1 nM.

Turning to `C[C@H]1C2Cc3ccc(C(=O)NCCc4ccc(-c5cccc(Cl)c5)cc4)cc3[C@@]1(C)CCN2CC1CC1` [Example 50], the Ki came out at 0.56 ± 0.087 nM.

`C[C@H]1C2Cc3ccc(C(=O)NCCc4ccc(C(=O)NCCc5ccc(Br)cc5)cc4)cc3[C@@]1(C)CCN2CC1CC1` [Example 53]: the Ki was 1.5 ± 0.18 nM.

Molecule `C[C@H]1C2Cc3ccc(C(=O)NCCCCc4ccccc4)cc3[C@@]1(C)CCN2CC1CC1` [Example 60] had a Ki of 4.3 ± 0.42 nM.

Regarding `O=C(NCCc1ccc(-c2ccccc2)cc1)c1ccc2c(c1)[C@@]13CCCC[C@@]1(O)[C@@H](C2)N(CC1CCC1)CC3` [Example 79, (−)-Q-butorphanol], the Ki was determined as 0.32 ± 0.048 nM.

In turn, `O=C1CC[C@@]2(O)[C@H]3Cc4ccc(C(=O)NCCc5ccc(-c6ccccc6)cc5)c(O)c4[C@@]2(CCN3CC2CC2)C1` [Example 81, Q-naltrexone ring opened] gave a Ki of 0.71 ± 0.091 nM.

The assay is the same for the next values; noted with them: read-out: [3H]DAMGO (μ).
Turning to `CC1[C@@H]2Cc3ccc(C(=O)NCCc4ccccc4)cc3[C@@]1(C)CCN2CC1CC1` (mixture of isomers) [Example 11, (±)-3-(Cyclopropylmethyl)-1,2,3,4,5,6-hexahydro-cis-6,11-dimethyl-N-(2-phenylethyl)-2,6-methano-3-benzazocine-8-carboxamide], the Ki came to 3.5 ± 0.27 nM.

As to `CC1[C@@H]2Cc3ccc(C(=O)NCCCc4ccccc4)cc3[C@@]1(C)CCN2CC1CC1` (mixture of isomers) [Example 12, (±)-3-(Cyclopropylmethyl)-1,2,3,4,5,6-hexahydro-cis-6,11-dimethyl-N-(3-phenylpropyl)-2,6-methano-3-benzazocine-8-carboxamide], the Ki is 2.5 ± 0.27 nM.

In the case of `CC1[C@@H]2Cc3ccc(C(=O)NCCc4cccc(-c5ccccc5)c4)cc3[C@@]1(C)CCN2CC1CC1` (mixture of isomers) [Example 25, (±)-3-(Cyclopropylmethyl)-1,2,3,4,5,6-hexahydro-cis-6,11-dimethyl-N-(2-(biphenyl-3-yl)ethyl)-2,6-methano-3-benzazocine-8-carboxamide], the Ki turned out to be 0.95 ± 0.15 nM.

Consider `CC1[C@@H]2Cc3ccc(C(=O)NCCc4ccccc4-c4ccccc4)cc3[C@@]1(C)CCN2CC1CC1` (mixture of isomers) [Example 26, (±)-3-(Cyclopropylmethyl)-1,2,3,4,5,6-hexahydro-cis-6,11-dimethyl-N-(2-(biphenyl-2-yl)ethyl)-2,6-methano-3-benzazocine-8-carboxamide], for which the Ki was found to be 6.7 ± 0.49 nM.

On to `CC1[C@@H]2Cc3ccc(C(=O)NCCc4ccc(Cc5ccccc5)cc4)cc3[C@@]1(C)CCN2CC1CC1` (mixture of isomers) [Example 27, (±)-3-(Cyclopropylmethyl)-1,2,3,4,5,6-hexahydro-cis-6,11-dimethyl-N-(4-benzylphenethyl)-2,6-methano-3-benzazocine-8-carboxamide], for which the Ki was found to be 0.23 ± 0.032 nM.

Take `CC1[C@@H]2Cc3ccc(C(=O)NCCc4ccc(Br)cc4)cc3[C@@]1(C)CCN2CC1CC1` (mixture of isomers) [Example 29, (±)-3-(Cyclopropylmethyl)-1,2,3,4,5,6-hexahydro-cis-6,11-dimethyl-N-(4-bromophenethyl)-2,6-methano-3-benzazocine-8-carboxamide]: the Ki was 2.4 ± 0.33 nM.

For `CC1[C@@H]2Cc3ccc(C(=O)NCCc4cccc(Br)c4)cc3[C@@]1(C)CCN2CC1CC1` (mixture of isomers) [Example 30, (±)-3-(Cyclopropylmethyl)-1,2,3,4,5,6-hexahydro-cis-6,11-dimethyl-N-(3-bromophenethyl)-2,6-methano-3-benzazocine-8-carboxamide], the Ki was found to be 0.35 ± 0.021 nM.

As for `CC1[C@@H]2Cc3ccc(C(=O)NCCc4ccc(Oc5ccccc5)cc4)cc3[C@@]1(C)CCN2CC1CC1` (mixture of isomers) [Example 33, (±)-3-(Cyclopropylmethyl)-1,2,3,4,5,6-hexahydro-cis-6,11-dimethyl-N-(4-phenoxyphenethyl)-2,6-methano-3-benzazocine-8-carboxamide], the Ki stood at 0.059 ± 0.017 nM.

Turning to `CC1[C@@H]2Cc3ccc(C(=O)NCCc4cccc(Oc5ccccc5)c4)cc3[C@@]1(C)CCN2CC1CC1` (mixture of isomers) [Example 34, (±)-3-(Cyclopropylmethyl)-1,2,3,4,5,6-hexahydro-cis-6,11-dimethyl-N-(3-phenoxyphenethyl)-2,6-methano-3-benzazocine-8-carboxamide], the Ki came to 0.54 ± 0.16 nM.

`CC1[C@@H]2Cc3ccc(C(=O)NCCc4ccccc4Oc4ccccc4)cc3[C@@]1(C)CCN2CC1CC1` (mixture of isomers) [Example 35, (±)-3-(Cyclopropylmethyl)-1,2,3,4,5,6-hexahydro-cis-6,11-dimethyl-N-(2-phenoxyphenethyl)-2,6-methano-3-benzazocine-8-carboxamide]: the Ki stood at 0.63 ± 0.09 nM.

As to `CC1[C@@H]2Cc3ccc(C(=O)NCCc4ccc5ccccc5c4)cc3[C@@]1(C)CCN2CC1CC1` (mixture of isomers) [Example 37, (±)-3-(Cyclopropylmethyl)-1,2,3,4,5,6-hexahydro-cis-6,11-dimethyl-N-(2-(naphthalen-2-yl)ethyl)-2,6-methano-3-benzazocine-8-carboxamide], the Ki was determined as 0.18 ± 0.009 nM.

On to `CC1[C@@H]2Cc3ccc(C(=O)NCCCc4ccc5ccccc5c4)cc3[C@@]1(C)CCN2CC1CC1` (mixture of isomers) [Example 38, (±)-3-(Cyclopropylmethyl)-1,2,3,4,5,6-hexahydro-cis-6,11-dimethyl-N-(3-(naphthalen-2-yl)propyl)-2,6-methano-3-benzazocine-8-carboxamide], for which the Ki is 1.9 ± 0.19 nM.

For the molecule `CC1[C@@H]2Cc3ccc(C(=O)NCCc4cccc5ccccc45)cc3[C@@]1(C)CCN2CC1CC1` (mixture of isomers) [Example 40, (±)-3-(Cyclopropylmethyl)-1,2,3,4,5,6-hexahydro-cis-6,11-dimethyl-N-(2-(naphthalen-1-yl)ethyl)-2,6-methano-3-benzazocine-8-carboxamide], the Ki amounted to 4.2 ± 0.13 nM.

In the case of `CC1[C@@H]2Cc3ccc(C(=O)NCCCc4ccc5ccccc5c4)cc3[C@@]1(C)CCN2CC1CC1` (mixture of isomers) [Example 41, (±)-3-(Cyclopropylmethyl)-1,2,3,4,5,6-hexahydro-cis-6,11-dimethyl-N-(3-(naphthalen-2-yl)propyl)-2,6-methano-3-benzazocine-8-carboxamide], the Ki amounted to 2.4 ± 0.45 nM.

On to `CC1[C@@H]2Cc3ccc(C(=O)NCCc4ccccc4Br)cc3[C@@]1(C)CCN2CC1CC1` (mixture of isomers) [Example 52, (±)-3-(Cyclopropylmethyl)-1,2,3,4,5,6-hexahydro-cis-6,11-dimethyl-N-(2-bromophenethyl)-2,6-methano-3-benzazocine-8-carboxamide], for which the Ki was found to be 4 ± 0.36 nM.

Consider `COc1ccc(-c2ccc(CCNC(=O)c3ccc4c(c3)[C@@]3(C)CCN(CC5CC5)C(C4)[C@@H]3C)cc2)cc1` [Example 48], for which the Ki was 0.084 ± 0.012 nM.

With `C[C@H]1C2Cc3ccc(C(=O)NCCc4ccc(-c5ccc(Cl)cc5)cc4)cc3[C@@]1(C)CCN2CC1CC1` [Example 49], the Ki worked out at 0.2 ± 0.038 nM.

With `Cc1ccc(-c2ccc(CCNC(=O)c3ccc4c(c3)[C@@]3(C)CCN(CC5CC5)C(C4)[C@@H]3C)cc2)cc1` [Example 51], the Ki is 0.29 ± 0.075 nM.

A further assay deals with guinea pig μ receptors.
Assay: not given
The following applies: background, U.S. Pat. No. 6,784,187; cited from earlier work.
As to `C[C@H]1C2Cc3ccc(C(N)=O)cc3[C@@]1(C)CCN2CC1CC1` [Example 8-CAC, 8-carboxamidocyclazocine], the “affinity for μ opioid receptors” value is “high affinity”.

In the next assay the test system is κ opioid receptors.
Assay: not given
The settings on record: background, U.S. Pat. No. 6,784,187; cited from earlier work.
Consider `C[C@H]1C2Cc3ccc(C(N)=O)cc3[C@@]1(C)CCN2CC1CC1` [Example 8-CAC, 8-carboxamidocyclazocine], for which the “affinity for κ opioid receptors” value was “high affinity”.

A further assay concerns mice.
Assay: not given
The following applies: 1 mg/kg ip in mice; cited from earlier work.
Regarding `C[C@H]1C2Cc3ccc(C(N)=O)cc3[C@@]1(C)CCN2CC1CC1` [Example 8-CAC, 8-carboxamidocyclazocine], the duration of action is recorded as 15 h.

With `C[C@H]1[C@H]2Cc3ccc(O)cc3[C@]1(C)CCN2CC1CC1` [cyclazocine], the duration of action is 2 h.

Staying with this assay, now noted: background; cited from earlier work.
Turning to `C[C@H]1C2Cc3ccc(C(N)=O)cc3[C@@]1(C)CCN2CC1CC1` [Example 8-CAC, 8-carboxamidocyclazocine], the “antinociception activity in vivo” value is reported as “high antinociception activity”.
